The results in this text go back to PMC3601116, “Surfactant Protein D Modulates HIV Infection of Both T-Cells and Dendritic Cells” (PLoS ONE, 2013).

The target of assay [1] is T1, Surfactant Protein D (SP-D) (Homo sapiens, UniProt P35247).
T1 construct: gene SFTPD; dodecamer (four trimeric units)
T1 sequence (P35247 21-375): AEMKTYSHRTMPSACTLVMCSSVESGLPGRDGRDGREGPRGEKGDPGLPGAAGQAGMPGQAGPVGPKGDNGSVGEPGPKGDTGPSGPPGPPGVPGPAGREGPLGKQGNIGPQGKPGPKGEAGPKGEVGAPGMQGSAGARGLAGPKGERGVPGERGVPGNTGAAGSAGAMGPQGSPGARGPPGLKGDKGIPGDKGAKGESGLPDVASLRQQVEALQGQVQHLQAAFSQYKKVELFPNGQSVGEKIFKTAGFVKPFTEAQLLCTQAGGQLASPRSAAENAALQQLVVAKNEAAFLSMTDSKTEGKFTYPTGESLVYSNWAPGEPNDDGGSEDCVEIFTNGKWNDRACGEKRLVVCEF
As to the kind of experiment: SPR competition of SP-D ([…]) binding to immobilised biotinylated gp120 IIIB. Conditions: 5 mM CaCl2, SP-D in solution, lectin site (CRD), competes with gp120 glycans.

In assay [2] the target is T1, Surfactant Protein D (SP-D). The assay is described as follows: SPR competition of inactivated HIV BaL particles binding to immobilised SP-D. The conditions noted are these: pH 7.4, calcium, 25 C, lectin site (CRD), competes with HIV glycans.
Assay [3] addresses recombinant gp120 IIIB (HIV strain IIIB) (UniProt P04578). The assay is described as follows: ELISA; competition: gp120 IIIB (2 µg/mL) immobilised; biotinylated soluble DC-SIGN, biotinylated soluble CD4 or CVN added together with SP-D (0-40 µg/mL); absorbance without competitor taken as 100%.

Regarding `OC[C@H]1OC(O)[C@H](O)[C@@H](O)[C@H]1O` (stereo partly drawn) [D-galactose], the IC50 in assay [1] (read-out: IC50) is 32.2 mM. In assay [1], `CC(=O)N[C@H]1C(O)O[C@H](CO)[C@@H](O)[C@@H]1O` (stereo partly drawn) [GlcNAc] returned an IC50 of 22.9 mM.

For the compound `OC[C@H]1OC(O)[C@H](O)[C@@H](O)[C@@H]1O` (stereo partly drawn) [glucose], the IC50 in assay [2] is 5.4 mM.

In assay [1], `OC[C@H]1O[C@H](O[C@H]2[C@H](O)[C@@H](O)C(O)O[C@@H]2CO)[C@H](O)[C@@H](O)[C@@H]1O` (stereo partly drawn) [maltose] displayed an IC50 of 6.5 mM. For `OC[C@H]1OC(O)[C@@H](O)[C@@H](O)[C@@H]1O` (stereo partly drawn) [mannose], the IC50 in assay [1] (read-out: IC50) was determined as 7.8 mM.

With “Surfactant Protein D (from UniProt P35247 21-375) (natural protein)”, the maximum inhibition of sDC-SIGN binding to gp120 in assay [3] was determined as 80%.
